Patent US20150352108A1, “AMINO-PYRIMIDINE COMPOUNDS AS INHIBITORS OF TBK1 AND/OR IKK EPSILON” (Alzheimer's Institute of America, priority 2009, published 2015)
Where two headings read alike, the source gives them in different places.

Legend:
[1] = test system: IKKε-mediated phosphorylation of IRF3; assay: In-situ phosphorylation of IRF3 (pIRF3 Ser396 ELISA) in HEK293T cells cotransfected with IRF3 and IKKε; format: cell-based; conditions: Homo sapiens, HEK-293T
Procedure, shortened: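 For the IRF3 ELISA, HEK293T cells cotransfected with IRF3 and IKKε were replated at 20,000/well and treated 20 h. Phospho-Ser396 IRF3 was measured by ELISA and normalised to DMSO, with viability checked by CellTiter-Glo. For IRF7, cells transfected with IRF7 and TBK1 were treated overnight, and pSer477/Ser479 IRF7 was detected by Western blot.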

[2] = molecular target: T1, TBK1 (Homo sapiens, UniProt Q9UHD2); assay: In-vitro TBK1 kinase assay ([γ33]ATP filter-plate); format: biochemical
T1 construct: His-tag; made in house; host or cells: Sf9 insect cells
T1 sequence (Q9UHD2 1-729): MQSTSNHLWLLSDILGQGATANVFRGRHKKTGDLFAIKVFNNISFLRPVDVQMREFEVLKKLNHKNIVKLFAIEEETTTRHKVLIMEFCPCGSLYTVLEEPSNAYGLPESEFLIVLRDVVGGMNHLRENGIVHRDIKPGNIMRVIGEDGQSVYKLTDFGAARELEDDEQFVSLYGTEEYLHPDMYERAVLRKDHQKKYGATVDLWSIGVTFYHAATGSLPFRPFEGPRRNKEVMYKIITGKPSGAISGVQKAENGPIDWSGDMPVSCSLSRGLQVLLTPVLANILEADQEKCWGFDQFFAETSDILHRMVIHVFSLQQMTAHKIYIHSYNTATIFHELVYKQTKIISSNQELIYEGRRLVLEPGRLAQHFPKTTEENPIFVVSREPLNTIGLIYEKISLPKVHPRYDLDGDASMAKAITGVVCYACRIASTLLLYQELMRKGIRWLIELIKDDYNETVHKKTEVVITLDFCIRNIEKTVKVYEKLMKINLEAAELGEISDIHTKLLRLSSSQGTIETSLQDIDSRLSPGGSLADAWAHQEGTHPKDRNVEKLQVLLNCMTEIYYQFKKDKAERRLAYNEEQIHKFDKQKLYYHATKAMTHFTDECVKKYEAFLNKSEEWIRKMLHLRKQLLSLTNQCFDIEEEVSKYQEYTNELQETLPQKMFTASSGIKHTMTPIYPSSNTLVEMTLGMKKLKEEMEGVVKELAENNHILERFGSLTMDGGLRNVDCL
Procedure, shortened: (§1)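 His-tagged Sf9-expressed kinases at 0.1 or 0.02 μg/ml (TBK1) and 0.1 or 0.015 μg/ml (IKKε) for normal and sensitized formats, with myelin basic protein or casein substrate. ATP was at 2×Km (60 μM TBK1, 32 μM IKKε) plus 0.3 μCi [γ33]ATP. Reactions ran 30-45 min, were captured on P-81 filters, and counts were normalized to DMSO.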

[3] = molecular target: T2, IKKε (Homo sapiens, UniProt Q14164); assay: In-vitro IKKε kinase assay ([γ33]ATP filter-plate); format: biochemical
T2 construct: His-tag; made in house; host or cells: Sf9 insect cells
T2 sequence (Q14164 1-716): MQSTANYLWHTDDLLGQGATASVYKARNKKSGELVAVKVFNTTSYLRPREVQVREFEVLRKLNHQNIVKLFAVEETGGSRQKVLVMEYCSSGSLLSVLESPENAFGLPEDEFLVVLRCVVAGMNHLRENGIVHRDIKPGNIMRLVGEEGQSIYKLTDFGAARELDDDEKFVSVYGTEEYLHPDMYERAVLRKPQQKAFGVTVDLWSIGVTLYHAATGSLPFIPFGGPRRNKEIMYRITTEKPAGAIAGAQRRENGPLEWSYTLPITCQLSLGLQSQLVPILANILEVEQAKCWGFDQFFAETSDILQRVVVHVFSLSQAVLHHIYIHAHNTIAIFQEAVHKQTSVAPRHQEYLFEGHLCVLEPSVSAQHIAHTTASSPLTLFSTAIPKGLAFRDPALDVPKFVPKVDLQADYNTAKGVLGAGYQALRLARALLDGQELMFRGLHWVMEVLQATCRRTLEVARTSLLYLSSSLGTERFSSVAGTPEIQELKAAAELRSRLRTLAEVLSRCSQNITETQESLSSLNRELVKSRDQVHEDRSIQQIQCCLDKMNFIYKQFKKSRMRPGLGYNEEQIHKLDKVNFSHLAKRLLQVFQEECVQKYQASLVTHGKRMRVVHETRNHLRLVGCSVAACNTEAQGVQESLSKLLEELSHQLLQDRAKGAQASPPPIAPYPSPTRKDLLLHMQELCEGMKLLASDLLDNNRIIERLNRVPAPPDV
Procedure, shortened: as §1

[4] = HEK293T cells, 20 hours, text bins, read-out: IC50 for inhibition of the in-situ IKKε-mediated phosphorylation of IRF3
[5] = text bins, read-out: IC50 for inhibition of the kinase activity of TBK1
[6] = text bins, read-out: IC50 for inhibition of the kinase activity of IKKε
[7] = HEK293T cells in culture, Table 3, read-out: pIRF3 ELISA IC50

Row | IC50 [1, 4] [nM] | IC50 [2, 5] [nM] | IC50 [3, 6] [nM] | IC50 [1, 7] [nM] | IC50 ([2]; Table 3, read-out: TBK1 IC50) [nM] | IC50 ([3]; Table 3, read-out: IKKε IC50) [nM] | Compound
1 | < 100 | < 10 | < 5 | 50.3 | 1.3 | 1.1 | COCCNC(=O)Nc1cccc(Nc2nccc(-c3ccc(OC4CCOCC4)c(C#N)c3)n2)c1 [compound 543, 1-[3-({4-[3-Cyano-4-(tetrahydro-2H-pyran-4-yloxy)phenyl]pyrimidin-2-yl}amino)phenyl]-3-(2-methoxyethyl)urea]
2 | < 100 | < 10 | < 5 | 56 | 0.7 | 0.4 | N#Cc1cc(-c2ccnc(Nc3cccc(CN4CCC(O)C4)c3)n2)ccc1OC1CCOCC1 (centres unmarked) [compound 561, 5-[2-({3-[(3-Hydroxypyrrolidin-1-yl)methyl]phenyl}amino)pyrimidin-4-yl]-2-(tetrahydro-2H-pyran-4-yloxy)benzonitrile]
3 | < 100 | < 10 | < 5 |  |  |  | COc1cc(Nc2nccc(-c3ccc(OC4CCOCC4)c(C#N)c3)n2)ccc1C(=O)N1CCC1 [compound 567, 5-(2-{[4-(Azetidin-1-ylcarbonyl)-3-methoxyphenyl]amino}pyrimidin-4-yl)-2-(tetrahydro-2H-pyran-4-yloxy)benzonitrile]
4 | < 100 | < 10 | < 5 | 31 | 0.3 | 0.3 | COc1cc(Nc2nccc(-c3ccc(O[C@@H]4CCN(C(=O)CO)C4)c(C#N)c3)n2)ccc1N1CCOCC1 [compound 588, 2-{[(3R)-1-(hydroxyacetyl)pyrrolidin-3-yl]oxy}-5-(2-{[3-methoxy-4-(morpholin-4-yl)phenyl]amino}pyrimidin-4-yl)benzonitrile]
5 |  | < 10 | < 5 | > 5000 | 2 | 0.3 | N#Cc1cc(-c2ccnc(Nc3cccc(-c4nnn[nH]4)c3)n2)ccc1OC1CCOCC1 [compound 594, 2-(Tetrahydro-2H-pyran-4-yloxy)-5-(2-{[3-(1H-tetrazol-5-yl)phenyl]amino}pyrimidin-4-yl)benzonitrile]
6 | < 100 | < 10 | < 5 |  |  |  | CCOC1CN(C(=O)c2ccc(Nc3nccc(-c4ccc(OC5CCOCC5)c(C#N)c4)n3)cc2OC)C1 [compound 599, 5-[2-({4-[(3-Ethoxyazetidin-1-yl)carbonyl]-3-methoxyphenyl}amino)pyrimidin-4-yl]-2-(tetrahydro-2H-pyran-4-yloxy)benzonitrile]
7 | 250 to 500 | < 10 | < 5 | 276 | 0.4 | 2.4 | CN(C)S(=O)(=O)Cc1cccc(Nc2nccc(-c3ccc(OC4CCOCC4)c(C#N)c3)n2)c1 [compound 601, 1-[3-({4-[3-Cyano-4-(tetrahydro-2H-pyran-4-yloxy)phenyl]pyrimidin-2-yl}amino)phenyl]-N,N-dimethylmethane-sulfonamide]
8 | 100 to 250 | < 10 | < 5 |  |  |  | COc1cc(Nc2nccc(-c3ccc(NC(=O)C4CC4)c(C#N)c3)n2)ccc1C(=O)N1CC(OC)C1 [compound 603, N-{2-Cyano-4-[2-({3-methoxy-4-[(3-methoxyazetidin-1-yl)carbonyl]phenyl}amino)pyrimidin-4-yl]phenyl} cyclopropane-carboxamide]

Continued, compound first:

Row | Compound | IC50 [1, 4] [nM] | IC50 [2, 5] [nM] | IC50 [3, 6] [nM] | IC50 [1, 7] [nM] | IC50 ([2]; Table 3, read-out: TBK1 IC50) [nM] | IC50 ([3]; Table 3, read-out: IKKε IC50) [nM]
9 | COCCNC(=O)c1ccc(Nc2nccc(-c3ccc(NC(=O)C4CC4)c(C#N)c3)n2)cc1 [compound 537] | 100 to 250 | 10 to 100 | 5 to 50 |  |  | 
10 | COCCNCc1ccc(Nc2nccc(-c3ccc(NC(=O)C4CC4)c(C#N)c3)n2)cc1OC [compound 556] | < 100 | < 10 | 5 to 50 |  |  | 
11 | Cc1ccc(Nc2nccc(-c3ccc(OC4CCOCC4)c(C#N)c3)n2)cc1OCCN [compound 559, 5-(2-{[3-(2-Aminoethoxy)-4-methylphenyl]amino}pyrimidin-4-yl)-2-(tetrahydro-2H-pyran-4-yloxy)benzonitrile] | < 100 | < 10 | < 5 |  |  | 
12 | CC(C)N1CCN(CCOc2cc(Nc3nccc(-c4ccc(OCC5CC5)c(C#N)c4)n3)ccc2F)CC1 [compound 574, 2-(Cyclopropylmethoxy)-5-{2-[(4-fluoro-3-{2-[4-(propan-2-yl)piperazin-1-yl]ethoxy}phenyl)amino]pyrimidin-4-yl}benzonitrile] | 100 to 250 | < 10 | < 5 |  |  | 
13 | CCN(CC)CCOc1cc(Nc2nccc(-c3ccc(OC4CCOCC4)c(C#N)c3)n2)ccc1F [compound 586, 5-[2-({3-[2-(Diethylamino)ethoxy]-4-fluorophenyl}amino)pyrimidin-4-yl]-2-(tetrahydro-2H-pyran-4-yloxy)benzonitrile] | 100 to 250 | < 10 | < 5 |  |  | 
14 | Cc1ccc(Nc2nccc(-c3ccc(OC4CCOCC4)c(C#N)c3)n2)cc1OCCN1CCN(C(C)C)CC1 [compound 597, 5-{2-[(4-Methyl-3-{2-[4-(propan-2-yl)piperazin-1-yl]ethoxy}phenyl)amino]pyrimidin-4-yl}-2-(tetrahydro-2H-pyran-4-yloxy)benzonitrile] | 100 to 250 | < 10 | < 5 |  |  | 
15 | N#Cc1cc(-c2ccnc(Nc3ccc(F)c(OCCN)c3)n2)ccc1OCC1CC1 [compound 612, 5-(2-{[3-(2-Aminoethoxy)-4-fluorophenyl]amino}pyrimidin-4-yl)-2-(cyclopropylmethoxy) benzonitrile] | 100 to 250 | < 10 | < 5 |  |  | 
16 | COc1cc(Nc2nccc(-c3ccc(OC4CCOCC4)c(C#N)c3)n2)ccc1C(=O)N1CCCC1 [compound 613, 5-(2-{[3-Methoxy-4-(pyrrolidin-1-ylcarbonyl)phenyl]amino}pyrimidin-4-yl)-2-(tetrahydro-2H-pyran-4-yloxy)benzonitrile] | < 100 | < 10 | < 5 | 19.9 | 0.4 | 0.8
17 | CN1CCN(CCNc2cccc(Nc3nccc(-c4ccc(OC5CCOCC5)c(C#N)c4)n3)c2)CC1 [compound 616, 5-{2-[(3-{[2-(4-Methylpiperazin-1-yl)ethyl]amino}phenyl)amino]pyrimidin-4-yl}-2-(tetrahydro-2H-pyran-4-yloxy)benzonitrile] | < 100 | < 10 | < 5 | 98.5 | 1.6 | 1.1
18 | CCN(CC)CCOc1cc(Nc2nccc(-c3ccc(OC4CCOCC4)c(C#N)c3)n2)ccc1C [compound 618, 5-[2-({3-[2-(Diethylamino)ethoxy]-4-methylphenyl}amino)pyrimidin-4-yl]-2-(tetrahydro-2H-pyran-4-yloxy)benzonitrile] | < 100 | < 10 | < 5 |  |  | 
